Assays:
DJ-1 deficient ES cells = assay: Toxin exposure of DJ-1 deficient versus heterozygous ES cells (MTT, Annexin V/PI FACS, PARP, DHR, protein carbonyls); format: cell-based, murine; settings: for sensitivity of DJ-1 deficient cells to toxin relative to heterozygous cells (cell viability, MTT): 15 hours exposure
Experimental: We generated cells deficient in DJ-1. cDNA for DJ-1 was PCR amplified from human liver cDNA (Clontech) and cloned into the expression vectors pET-28a (Novagen) or pcDNA3.1 (Invitrogen) using standard techniques. Flag-DJ-1 and all described mutants were generated by PCR-mediated mutagenesis. For protein carbonyl quantization (Bian et al. 2003), cells were plated (1.4×10^5 cells per well), grown for 24 hours, and then treated with 10 mM H2O2 as indicated. Cleared lysate ([…]) from each time point was added to 2 M HCl ([…]) with or without 10 mM DNPH and incubated for 1 h at 24° C. with shaking. Proteins were then TCA precipitated and resuspended in […] 6M Guanidinium Chloride. Absorbance was measured at 360 nm, and DNP-conjugated samples were normalized for protein concentration with the underivitized control samples. Undifferentiated ES cells were cultured using standard techniques (Abeliovich et al. 2000). SDIA differentiation of ES cultures was performed as described (Kawasaki et al. 2000) except that ES cells were plated at a density of 500 cells/cm^2 and cocultured with the MS5 mouse stromal cell line (Barberi et al. 2003). Transfections were performed using Lipofectamine 2000 (Life Technologies) for 18-36 hours as per the manufacturer's instructions (Staropoli et al. 2003). Primary cultures and infections were performed as described (Staropoli et al. 2003). A murine embryonic stem (ES) cell clone, F063A04, that harbors a retroviral insertion at the DJ-1 locus was obtained through the German Gene Trap Consortium (http://tikus.gsf.de) (Floss and Wurst 2002). The pT1ATGβgeo gene trap vector is present between exons 6 and 7 of the murine DJ-1 gene, as determined by cDNA sequencing of trapped transcripts and genomic analysis (FIG. 12A). This integration is predicted to disrupt the normal splicing of DJ-1, leading to the generation of a truncated protein that lacks the carboxy-terminal domain required for dimerization and stability. Of note, a mutation that encodes a similarly truncated protein (at the human DJ-1 exon 7 splice acceptor) has been described in a patient with early-onset PD (Hague et al. 2003).
To investigate the role of DJ-1 in the oxidative stress response in vivo, DJ-1-deficient homozygous mutant (‘knockout’) cells and DJ-1 heterozygote (‘control’) ES cell clones were analyzed for cell viability in the context of increasing concentrations of H2O2. ES cells plated in 96-well format (2.3×10^4 cells/well) were treated for 15 hours with H2O2 in ES media deficient in b-mercaptoethanol (Abeliovich et al. 2000). Cell viability (as a percent of untreated control) was determined by MTT assay in triplicate (Fezoui et al. 2000). Annexin V/Propidium Iodide (Molecular probes) staining was performed per the manufacturer's instructions. For dihydrorhodamine-123 staining (DHR, Molecular probes) (Walrand et al. 2003), cells were preincubated for 30 min with DHR ([…]), washed with PBS, then treated with H2O2 in ES media deficient in b-mercaptoethanol for 15 min at 37° C. The FACS analysis was performed using a FACSTAR sorter (Becton Dickinson). Dopamine uptake assays were performed essentially as described in Farrer et al. 1998. Reported values represent specific uptake from which non-specific uptake, determined in the presence of mazindol, was subtracted, and normalized for protein content (BCA kit, Pierce).
Heterozygous cells were used as controls because the ‘knockout’ subclones were derived from these. Cell viability was initially determined by MTT assay in triplicate (Fezoui et al. 2000). […] The increase in AV-positive cells implicated an apoptotic mechanism of cell death (FIG. 12F).
We quantified the accumulation of ROS in response to H2O2 treatment in mutant and heterozygous control cells using the ROS-sensitive fluorescent indicator dye dihydrorhodamine-123 (DHR) and FACS analysis. […]

[1] = test system: DJ-1 deficient dopamine neurons; assay: 6-OHDA exposure of ES-derived dopamine neuron cultures, dopamine uptake assay; format: cell-based, murine; settings: cultures at 9 DIV, 72 hours exposure
Text: FIG. 14. DJ-1 Deficient ES Cultures Display Reduced Dopamine Neuron Production. (A) The SDIA coculture method. ES cells are cocultured with mouse stromal cells (MS5) in the absence of serum and LIF for 18 days in vitro (DIV). (B) Dopamine neuron production was quantified at 18 DIV by [^3H] dopamine uptake assay. DJ-1 deficient ES cultures were defective relative to heterozygous control cultures. (C-D) Neuron production was quantified by immunohistochemical analysis as a percent of Tuj1-positive colonies that express tyrosine hydroxylase (TH) or GAB A. Quantification of TH and GABA immunostaining was performed on all colonies in each of three independent wells. Colonies were scored as positive if any immunostained cells were present. […] (F) Kinetic analysis of dopamine neuron differentiation in DJ-1 deficient cultures (clone 32, solid square) and heterozygous controls (open circle) as quantified by dopamine uptake assay. […] Dopamine neurons were quantified by dopamine uptake assay. Data represent the means±SEM and were analyzed by ANOVA followed by Fisher's post-hoc test. *, p≦0.05.
To investigate the role of DJ-1 in the oxidative stress response in vivo, DJ-1-deficient homozygous mutant (‘knockout’) cells and DJ-1 heterozygote (‘control’) ES cell clones were analyzed for cell viability in the context of increasing concentrations of H2O2. […]

DY1 ES cells = assay: Candidate soluble factors in EB or SDIA differentiation of DY1 ES cells; format: cell-based, mouse; settings: for eYFP fluorescence or DAT immunoreactivity: factors added at stages 4-5 of differentiation
Experimental: FIG. 11. Effect of different soluble factors on the differentiation of DY1 into dopamine neurons with the EB method. (A) eYFP fluorescence or (B) DAT immunoreactivity was quantified by fluorescent confocal microscopy, see text for details. Data represent the mean±SEM. All results were analyzed by ANOVA. The level of significance is indicated where * p≦0.05 and ** p≦0.005.
We used marked ES-derived ‘late’ dopamine neurons to analyze candidate soluble and cell-associated factors in the differentiation process. […] Briefly, DY1 ES cells were differentiated using EB or SDIA and candidate factors were added to the standard differentiation protocol at stages 4-5 of differentiation (Lee et al., 2000).
We have tested additional candidate factors that are implicated in the differentiation of dopamine neurons and other CNS neuron classes. For instance, the Notch pathway plays an inhibitory role in early neuronal fate determination in uncommitted proliferative cells including neuronal stem cells (Bixby et al., 2002), as well as inhibitory roles in later events such as neurite outgrowth (Berezovska et al., 1999) in hippocampal cells. […] Another multifunctional factor in the early and late determination of neurons is neuregulin, which inhibits neurogenesis early but subsequently plays a role promoting synapse formation at certain CNS and PNS synapses (Buonanno and Fischbach, 2001). Neuregulin1-β1 appears to have increased the propensity of ES cultures to differentiate into DAT-positive cells.

MM13 cells = assay: GDNF and BDNF treatment of virally transduced MM13 cells, real-time rtPCR; format: cell-based, murine; settings: 10 ng/ml during EB stage 4
Experimental: FIG. 23. PitX3 and Nurr1 coordinately regulate extrinsic factor signaling pathways in EB-differentiated ES cultures. […] (B) PitX3 and Nurr1 co-overexpression expands cells that are sensitive to BDNF and GDNF treatment as quantified by rtPCR for the late marker DAT but not the early marker TH. […] Virally transduced MM13 cells were treated with GDNF and BDNF (both 10 ng/ml, from R&D system) during EB stage 4; real-time rtPCR levels are presented as a percentage of the value obtained double (Nurr1 and PitX3) transduction after normalization with β-actin.

Nurr1 + PitX3 = Nurr1 + PitX3 (Homo sapiens, UniProt P43354;O75364 P43354:1-598,O75364:1-302); assay: EMSA; cooperative binding of Nurr1 and PitX3; settings: tags: reticulocyte lysate; also nuclear extracts of EB-differentiated ES cultures; annealed oligonucleotides with overhangs
Experimental: Electrophoretic mobility shift assays (EMSA) were performed using an EMSA kit (Novagen) as per the manufacturer's instructions with annealed oligonucleotides for wild-type human DAT promoter sequences (5′-GTCTACTGGATAAGAGCCCGAGGCCGAGGCTGAGACCG-3′ (SEQ ID NO:14) and 5′-CTCAGCCTCGGCCTCGGGCTCTTATCCAGTAGACAGGGT-3′ (SEQ ID NO:15)) or mutant human DAT promoter sequences (5′-GTCTACTGGATGGGAGCCCGATTCCGAGGCTGAGACCG-3′ (SEQ ID NO:16) and 5′-CTCAGCCTCGGAATCGGGCTCCCATCCAGTAGACAGGGT-3′ (SEQ ID NO:17)).

For tunicamycin, the “sensitivity of DJ-1 deficient cells to toxin relative to heterozygous cells (cell viability, MTT)” value (DJ-1 deficient ES cells) was “did not observe altered sensitivity”.

`CN[C@@H]1C[C@H]2O[C@@](C)([C@@H]1OC)n1c3ccccc3c3c4c(c5c6ccccc6n2c5c31)C(=O)NC4` [staurosporine] was tested, and the “sensitivity of DJ-1 deficient cells to toxin relative to heterozygous cells (cell viability, MTT)” value (DJ-1 deficient ES cells) was “did not observe altered sensitivity”.

`NCCc1cc(O)c(O)cc1O` [6-OHDA, 6-hydroxydopamine] was tested, and the “sensitivity of DJ-1 deficient dopamine neurons to oxidative stress (dopamine uptake assay)” value [1] was “increased sensitivity”.

In the case of `[Cl][Cu][Cl]` [copper, CuCl2], the “sensitivity of DJ-1 deficient cells to toxin relative to heterozygous cells (cell viability, MTT)” value (DJ-1 deficient ES cells) is reported as “sensitized”.

`C[C@@H]1C[C@@H]([C@H](O)CC2CC(=O)NC(=O)C2)C(=O)[C@@H](C)C1` [cycloheximide] was tested, and the “sensitivity of DJ-1 deficient cells to toxin relative to heterozygous cells (cell viability, MTT)” value (DJ-1 deficient ES cells) was “did not observe altered sensitivity”.

For `OO` [H2O2, hydrogen peroxide], the “accumulation of protein carbonyls” value (DJ-1 deficient ES cells) was “normal”, the protein carbonyl accumulation (DJ-1 deficient ES cells) was “robustly increased” and the “initial ROS accumulation (DHR, FACS)” value (DJ-1 deficient ES cells; 15 minutes after stimulation, DJ-1 deficient versus heterozygous cells) was “unaltered”. The “sensitivity of DJ-1 deficient cells to toxin relative to heterozygous cells (cell viability, MTT)” value (DJ-1 deficient ES cells) was “significantly greater toxicity in DJ-1 deficient cells”, the “cleavage of Poly(ADP-ribose)polymerase-1 (PARP)” value (DJ-1 deficient ES cells; knockout cells) was “potentiated cleavage” and the “cell death, Annexin V and propidium iodide FACS” value (DJ-1 deficient ES cells; knockout relative to heterozygous cells) was “increased cell death of knockout cells”.

In the case of `CC(=O)N[C@@H](CSC(=O)[C@]1([C@@H](O)C(C)C)NC(=O)[C@H](C)[C@@H]1O)C(=O)O` [lactacystin], the “sensitivity of DJ-1 deficient cells to toxin relative to heterozygous cells (cell viability, MTT)” value (DJ-1 deficient ES cells) is reported as “sensitized”.

For “Jagged: soluble receptor Jagged (R&D Systems) protein used to inhibit Notch signaling”, the “terminally differentiated dopamine neurons” value (DY1 ES cells; inhibiting Notch signaling with soluble protein) was “significant increase”.

With Sonic Hedgehog the “eYFP fluorescence or DAT immunoreactivity” value (DY1 ES cells) was “significant increase”.

B1: BDNF: brain-derived neurotrophic factor, from R&D system (protein, UniProt P23560 19-247, looked up)
Neurotrophic factor BDNF …: APMKEANIRGQGGLAYPGVRTHGTLESVNGPKAGSRGLTSLADTFEHVIEELLDEDQKVRPNEENNKDADLYTSRVMLSSQVPLEPPLLFLLEEYKNYLDAANMSMRVRRHSDPARRGELSVCDSISEWVTAADKKTAVDMSGGTVTVLEKVPVSKGQLKQYFYETKCNPMGYTKEGCRGIDKRHWNSQCRTTQSYVRALTMDSKKRIGWRFIRIDTSCVCTLTIKRGR
In the case of B1, the “expression of Nurr1 and PitX3” value (MM13 cells) is reported as “fails to induce”.

B2: human DAT promoter wild-type EMSA oligo (dsDNA)
DNA 1: GTCTACTGGATAAGAGCCCGAGGCCGAGGCTGAGACCG
DNA 2: CTCAGCCTCGGCCTCGGGCTCTTATCCAGTAGACAGGGT
B2: binds (Nurr1 + PitX3).

B3: GDNF: glial cell-line-derived neurotrophic factor, from R&D system (protein, UniProt P39905 78-211, looked up)
Glial cell line-derived …: SPDKQMAVLPRRERNRQAAAANPENSRGKGRRGQRGKNRGCVLTAIHLNVTDLGLGYETKEELIFRYCSGSCDAAETTYDKILKNLSRNRRLVSDKVGQACCRPIAFDDDLSFLDDNLVYHILRKHSAKRCGCI
With B3 the “expression of Nurr1 and PitX3” value (MM13 cells) was “fails to induce”.

B4: FGF-8: fibroblast growth factor-8, candidate soluble factor added to ES differentiation (protein, UniProt P55075 23-233, looked up)
Fibroblast growth factor 8: QEGPGRGPALGRELASLFRAGREPQGVSQQHVREQSLVTDQLSRRLIRTYQLYSRTSGKHVQVLANKRINAMAEDGDPFAKLIVETDTFGSRVRVRGAETGLYICMNKKGKLIAKSNGKGKDCVFTEIVLENNYTALQNAKYEGWYMAFTRKGRPRKGSKTRQHQREVHFMKRLPRGHHTTEQSLRFEFLNYPPFTRSLRGSQRTWAPEPR
B4 was tested, and the “eYFP fluorescence or DAT immunoreactivity” value (DY1 ES cells) was “significant increase”.
